# Laboratory results: PMC4962298 (Research in Pharmaceutical Sciences, 2016)
# Key:
# [1] = system: intestinal P-gp-mediated digoxin transport; test: In situ rat single-pass intestinal perfusion; type: in vivo; conditions: for increase of digoxin Peff relative to digoxin alone: rat SPIP
# [2] = system: P-gp expression in Caco-2 cells; test: Western blot analysis of P-gp expression; type: cell-based; conditions: 48 h
# [3] = 1 μM drug, not statistically significant
structure (smiles),measurement,setting,value
C[C@H]1O[C@@H](O[C@H]2[C@@H](O)C[C@H](O[C@H]3[C@@H](O)C[C@H](O[C@H]4CC[C@@]5(C)[C@H](CC[C@@H]6[C@@H]5C[C@@H](O)[C@]5(C)[C@@H](C7=CC(=O)OC7)CC[C@]65O)C4)O[C@@H]3C)O[C@@H]2C)C[C@H](O)[C@@H]1O [digoxin],Peff of digoxin (20 μM) alone,"[1]; rat jejunum SPIP, digoxin 20 μM, no inhibitor, n = 3, mean ± SD",3.4 ± 0.8 × 10^-5cm/s
Cc1ccc(S(=O)(=O)NC(=O)NN2CC3CCCC3C2)cc1 (stereo not drawn) [gliclazide],increase of digoxin Peff relative to digoxin alone,"[1]; 0.1 μM drug, significant",about 59%
same,increase of digoxin Peff relative to digoxin alone,"[1]; 10 μM drug, significant",~76%
same,increase of digoxin Peff relative to digoxin alone,"[1]; 500 μM drug, significant",~153%
same,P-gp protein levels (P-gp/β-actin) relative to the untreated control,[2]; 500 μM drug,decreased
CN(C)C(=N)N=C(N)N [metformin],increase of digoxin Peff relative to digoxin alone,[1]; [3],about 44%
same,increase of digoxin Peff relative to digoxin alone,"[1]; 100 μM drug, P < 0.01",117.6%
same,increase of digoxin Peff relative to digoxin alone,"[1]; 7000 μM drug, P < 0.01",167.6%
same,P-gp protein levels (P-gp/β-actin) relative to the untreated control,[2]; 7000 μM drug,decreased
CCc1ccc(CCOc2ccc(CC3SC(=O)NC3=O)cc2)nc1 (stereo not drawn) [pioglitazone],increase of digoxin Peff relative to digoxin alone,[1]; [3],about 38%
same,increase of digoxin Peff relative to digoxin alone,"[1]; 300 μM drug, P < 0.01",~100%
same,P-gp protein levels (P-gp/β-actin) relative to the untreated control,[2]; 300 μM drug,decreased
